target: T1, TLR2 (Homo sapiens, UniProt O60603); assay: NF-κB activation assay, cells expressing TLR2 or TLR2 with TLR1 and/or TLR6; format: cell-based; conditions: 1 μg/ml
T1 construct: expressed in transfected cells; host or cells: HEK293T
Protocol: A) Structure of purified PGN fraction from B. subtilis (GM3P) and synthetic PGN-related compounds used in the study. B) Structure of MDP and four copies of GlcNAc-MurNAc with attached L-Ala-γ-D-Gln (4 mer) are indicated by closed and dotted boxes, respectively. C) The ability of cells were transfected with 0.3 ng pcDNA3-NOD1-Flag, 0.1 ng pcDNA3-Nod2 (NOD2) or vector control and reporter pBxIV-luc and pEF-BOS-β-gal plasmids to activate NF-κB. D) The ability of synthetic peptides, iE-DAP and iQ-DAP to stimulate NF-κB activation in the presence of control vector (−) and plasmids encoding NOD1 wild-type, mutant NOD1 lacking LRRs (NOD1ΔLRR) and NOD2. E) The ability of iE-DAP, iQ-DAP and sBLP (1 μg/ml) to activate NF-κB.
Reagents. LPS from S. typhimurium, intact and alkaline-detoxified LPS from E. coli O55:B5 as well as purified lipid A preparations of E. coli F583, MDP, DAP and dsRNA were obtained from Sigma-Aldrich (St. Louis, Mo.). PGN from S. aureus was from Fluka-Chemie (Buchs, Germany). Palmitoyl-Cys ((RS)-2,3-di(palmitoyloxy)-propyl)-Ala-Gly) (sBLP), was obtained from Bachem (Torrance, Calif.). The tetrameric form of the disaccharide dipeptide was described previously (Inohara et al., J. Biol. Chem. 278:5509 [2003]). iE-DAP and iQ-DAP, M3P and M4P were synthesized as described (Kitaura et al., J. Med. Chem. 25:335 [1982]) with small modification. Purification of PGN from B. subtilis 168 and C. flaccumfaciens with hydrolases, Cellosyl or recombinant AtlE (amidase domain) and the fractionation and purification of reduced B. subtilis PGN digested with Cellosyl were performed as previously described (Heilman et al., Mol. Microbiol. 24:1013 [1997]; Atrih et al., J. Bact. 181:3956 [1999]). Removal of proteins and reduction of LPS fraction. E. coli O55:B5 LPS (Sigma) was treated with proteinase K at 37° C. for 12 hr to digest contaminating proteins. […] The amino acid composition of E. coli O55:B5 LPS was determined using AccQ·Tag amino acid analysis system (Waters, Milford, Mass.) after hydrolysis at 110° C. for 24 hr. […]

T1 sequence (O60603 21-784, species assumed): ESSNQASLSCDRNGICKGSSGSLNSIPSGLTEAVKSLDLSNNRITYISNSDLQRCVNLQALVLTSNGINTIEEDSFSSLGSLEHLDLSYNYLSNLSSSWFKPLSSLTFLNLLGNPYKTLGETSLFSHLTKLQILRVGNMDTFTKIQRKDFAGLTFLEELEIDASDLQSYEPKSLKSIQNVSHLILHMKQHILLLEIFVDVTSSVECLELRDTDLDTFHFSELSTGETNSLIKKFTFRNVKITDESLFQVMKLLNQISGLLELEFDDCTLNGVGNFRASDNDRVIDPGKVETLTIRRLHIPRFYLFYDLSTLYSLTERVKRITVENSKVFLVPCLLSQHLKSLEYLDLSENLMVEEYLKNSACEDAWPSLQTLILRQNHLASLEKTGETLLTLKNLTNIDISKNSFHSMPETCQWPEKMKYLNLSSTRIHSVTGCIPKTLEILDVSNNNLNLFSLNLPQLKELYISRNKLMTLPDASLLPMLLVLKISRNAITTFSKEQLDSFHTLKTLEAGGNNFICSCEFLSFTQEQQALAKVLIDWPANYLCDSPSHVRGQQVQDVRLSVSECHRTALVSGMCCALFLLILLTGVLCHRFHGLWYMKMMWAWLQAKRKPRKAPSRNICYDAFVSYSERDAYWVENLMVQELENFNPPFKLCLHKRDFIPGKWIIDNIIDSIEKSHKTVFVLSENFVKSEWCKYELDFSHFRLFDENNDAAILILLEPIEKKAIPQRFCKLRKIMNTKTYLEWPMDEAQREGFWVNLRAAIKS

Substance | NF-κB activation via TLR2 or TLR2 co-expressed with TLR1 and/or TLR6
γ-D-glutamy-meso-diaminopimelic acid [iE-DAP] | not TLR2 or TLR2 co-expressed with TLR1 and/or TLR6
γ-D-Gln-DAP [iQ-DAP] | not TLR2 or TLR2 co-expressed with TLR1 and/or TLR6
Palmitoyl-Cys ((RS)-2,3-di(palmitoyloxy)-propyl)-Ala-Gly) [synthetic lipoprotein] | activated TLR2

Source: patent US7244557B2, “Method of screening modulators of Nod1 signaling” (Regents of the University of Michigan, priority 2003, dated 2007)
